Test results published in US5763435A, “Sulfate conjugates of ursodeoxycholic acid, and their beneficial use in inflammatory disorders” (priority 1995, dated 1998).
Several values for one entry are separate records, joined by “and”; a condition that tells them apart may be missing. Equal entries are not always repeated. Entries after “also recorded” stand apart in the source; their conditions may differ.

How the values were obtained:
[1] = system: Principal Bile Acids in Jejunum; assay: Bile acid composition of jejunum after oral administration (GC-MS); assay type: in vivo, Sprague-Dawley rats
Experimental: (§1) Male Sprague-Dawley rats (Harlan Sprague-Dawley, Inc., Indianapolis, Ind.), weighing 210-290 g, were maintained on a 12-hour light-dark cycle and fed standard laboratory chow ad libitum for 3 days. The animals were then transferred to metabolic cages in which they were housed individually and fed the same diet. UDCA, UDCA 3-sulfate, UDCA 7-sulfate, and UDCA 3,7-disulfate were administered by gavage at a dose of 250 mg/day for 4 consecutive days. Each group comprised 3-6 rats. Body weights of the animals were measured each day. On day 5, the animals were killed by exsanguination under ether anesthesia. Plasma was collected and frozen at -20° C. The liver was removed, rinsed in normal saline, and flash-frozen in liquid nitrogen. Urine and feces were collected every 24 hours and frozen at -20° C. All animals received humane care in compliance with the "Guide for the Care and Use of Laboratory Animals" prepared by the National Academy of Sciences (National Institutes of Health publication no. 86-23, revised in 1985).
(§2) Intestinal contents were weighed and dissected into small pieces. In each group, feces (100 mg) from all animals were pooled on day 4 of the study and then ground into a fine paste. All samples were sonicated and sequentially refluxed in 80% methanol for 2 hours and chloroform/methanol (1:1) for 1 hour. Samples were taken to dryness, and the dried extracts were resuspended in 80% methanol (20 mL). Fractions of the methanolic extract (1/40 of intestinal contents and 1/20 of feces samples) were removed and the internal standard nordeoxycholic acid (10 μg) was added. This extract was diluted with 0.01 mol/L acetic acid (20 mL) and passed first through a column of Lipidex 1000 (bed size, 4×1 cm; Packard Instrument Co., Groningen, The Netherlands) and then through a Bond-Elut C18, cartridge (Analytichem, Harbor City, Calif.). Bile acids were recovered by elution of the Lipidex 1000 column and the Bond-Elut cartridge with methanol (20 mL and 5 mL, respectively), and the combined extracts were taken to dryness. Unconjugated bile acids were isolated and separated from neutral sterol and conjugated bile acids by lipophilic anion exchange chromatography on diethylaminohydroxypropyl Sephadex LH-20 (Lipidex-DEAP; Package Instrument Co.). Recovery of unconjugated bile acids was achieved by elution with 0.1 mol/L acetic acid in 72% ethanol (7 mL) followed by evaporation of the solvents. Total conjugated bile acids were recovered with 9 mL of 0.3 mol/L acetic acid in 72% ethanol, pH 9.6. Salts were removed by passage through a Bond-Elut C18 cartridge after addition of nordeoxycholic acid (10 μg), and conjugated bile acids were recovered by elution with 5 mL of methanol. Solvolysis was performed in a mixture of methanol (1 mL), distilled tetrahydrofuran (9 mL), and 1 mol/L trifluoracetic acid in dioxane (0.1 mL) and heated to 45° C for 2 hours. After solvolysis, unconjugated bile acids were isolated by chromatography on Lipidex-DEAP. Methyl ester derivatives were prepared by dissolving the sample in methanol (0.3 mL) and reacting with 2.7 mL of freshly distilled ethereal diazomethane. After evaporation of the reagents, the methyl ester derivatives were converted to trimethylsilyl ethers by the addition of […] of Tri-Sil reagent (Pierce Chemicals, Rockford, Ill.). A column of Lipidex 5000 (Packard Instrument Co.) was used to remove derivatizing reagents and to purify the sample.
Samples of liver (100 mg) were ground to a fine paste, and bile acids were extracted by reflux and passage through a column of Lipidex 1000 as described above for intestinal contents and feces. Group separation of bile acids, according to their mode of conjugation was achieved by lipophilic anion-exchange chromatography. […]

fecal bile acids = assay: Fecal bile acid excretion after oral administration; assay type: in vivo, Sprague-Dawley rats
Experimental: as §1, §2
(§3) GC-MS analysis was performed using a Finnigan 4635 mass spectrometer (Finnigan Inc., San Jose, Calif.) that housed an identical gas chromatography column operated under the same conditions. Electron ionization (70 eV) mass spectra were recorded over the mass range of 50-800 daltons by repetitive scanning of the eluting components. […]

[2] = Plasma UDCA concentration after oral administration; assay type: in vivo, Sprague-Dawley rats; settings: read-out: Unconjugated plasma UDCA concentration
Experimental: Male Sprague-Dawley rats (Harlan Sprague-Dawley, Inc., Indianapolis, Ind.), weighing 210-290 g, were maintained on a 12-hour light-dark cycle and fed standard laboratory chow ad libitum for 3 days. The animals were then transferred to metabolic cages in which they were housed individually and fed the same diet. UDCA, UDCA 3-sulfate, UDCA 7-sulfate, and UDCA 3,7-disulfate were administered by gavage at a dose of 250 mg/day for 4 consecutive days. Each group comprised 3-6 rats. Body weights of the animals were measured each day. On day 5, the animals were killed by exsanguination under ether anesthesia. Plasma was collected and frozen at -20° C. […]
In each group, urine from all animals was pooled on the individual days of collection. […] After the addition of nordeoxycholic acid (1 μg), bile acids were quantitatively extracted from portions of urine (3 mL) and plasma (1 mL) using Bond-Elut C18 cartridges. […]
as §3
Data are expressed as mean±SEM or as mean values of all animals when extracts were pooled before analysis. […]

serum liver enzymes = settings: oral administration; cited from earlier work
[3] = system: chemically induced colon cancer; settings: in vivo; cited from earlier work
[4] = oral gavage 250 mg/day, 4 days, mean ± SEM

C[C@H](CCC(=O)O)[C@H]1CC[C@H]2[C@@H]3[C@@H](O)C[C@@H]4C[C@H](O)CC[C@]4(C)[C@H]3CC[C@]12C [UDCA, 3 alpha, 7 beta-dihydroxy-5 beta-cholan-24oic acid, reference compound]
Δ^22 UDCA in jejunum (in words) ([1]; oral): detected in large proportions and amounts | UDCA mass in jejunum ([1]; oral gavage 250 mg/day, 4 days, 24 hours after final dose, mean ± SEM): 9.95 mg and 9.95 ± 0.49 mg | Chenodeoxycholic acid mass in jejunum [1, 4]: 0.98 mg | Cholic acid mass in jejunum [1, 4]: 4.68 mg and 4.68 ± 0.65 mg | Cholic acid percent of jejunal bile acids [1, 4]: 16.8% | Deoxycholic acid mass in jejunum [1, 4]: 1.56 mg | Deoxycholic acid percent of jejunal bile acids [1, 4]: 5.6% | Lithocholic acid mass in jejunum [1, 4]: 0.26 mg | Lithocholic acid percent of jejunal bile acids [1, 4]: 1.0% | Total bile acid mass in jejunum [1, 4]: 27.77 mg | UDCA percent of jejunal bile acids [1, 4]: 35.9% | Δ^22-UDCA mass in jejunum [1, 4]: 4.00 mg | Δ^22-UDCA percent of jejunal bile acids [1, 4]: 14.5% | Δ^22-β-Muricholic acid mass in jejunum [1, 4]: 0.85 mg | Δ^22-ω-Muricholic acid mass in jejunum [1, 4]: 0.30 mg | α-Muricholic acid mass in jejunum [1, 4]: 0.75 mg | β-Muricholic acid mass in jejunum [1, 4]: 4.12 mg | ω-Muricholic acid mass in jejunum [1, 4]: 0.31 mg | Conjugation pattern of UDCA in jejunum ([1]; oral, anion-exchange chromatography): predominantly glyco- and tauro-UDCA, smaller amounts of unconjugated UDCA, and negligible amounts of sulfated UDCA | Fecal deoxycholic acid (in words) (fecal bile acids): increase in deoxycholic acid in the feces | Form of UDCA excreted in feces (fecal bile acids): almost exclusively found in the unconjugated form | Increase of fecal lithocholic acid/deoxycholic acid ratio vs normal rat feces (fecal bile acids): more than 20 fold | Total fecal bile acid excretion (fecal bile acids; pooled feces day 4): 14.85 mg/g feces | Fecal lithocholate/deoxycholate ratio (in words) (fecal bile acids; vs control): markedly increased | Fecal lithocholic acid excretion (in words) (fecal bile acids; vs control): increased markedly from control values; also recorded: large increase in the fecal lithocholic acid concentration | concentration [2]: 4.8 ± 2.2 µM | Serum liver enzymes (in words) (serum liver enzymes): significant improvement in serum liver enzymes | Effect in colon cancer models (in words) [3]: beneficial effects
